In paper PMC10169810, “Ligand-induced activation and G protein coupling of prostaglandin F2α receptor” (Nature Communications, 2023):
Values joined by “and” are separate entries in the source; they are usually repeats but may differ in a detail not shown here. Identical values can stand only once. “Also recorded” adds a separate entry of the source.

Assays:
Type in all cases: cell-based
FP S33A = biological target: T1, FP S33A (Homo sapiens, UniProt P43088, S33A); experiment: IP-One accumulation assay, FP S33A mutant
T1 construct: Flag; expressed in transfected cells; host or cells: AD293 cells
T1 sequence (P43088 whole entry S33A): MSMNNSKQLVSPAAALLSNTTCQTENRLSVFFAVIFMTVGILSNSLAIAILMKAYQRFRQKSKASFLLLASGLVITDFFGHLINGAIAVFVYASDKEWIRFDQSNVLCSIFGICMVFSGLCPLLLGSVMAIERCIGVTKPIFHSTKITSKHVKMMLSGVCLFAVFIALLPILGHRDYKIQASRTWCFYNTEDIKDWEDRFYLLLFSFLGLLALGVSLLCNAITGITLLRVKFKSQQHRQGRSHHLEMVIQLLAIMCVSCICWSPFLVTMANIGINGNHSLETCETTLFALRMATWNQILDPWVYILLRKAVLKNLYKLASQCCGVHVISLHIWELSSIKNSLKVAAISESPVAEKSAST
Method: (§1) IP-One production was measured using the IP-One HTRF kit (Cisbio)[50]. Briefly, AD293 cells (Agilent) were grown to a density of 400,000–500,000 cells per mL and then […] with separate plasmids at a suitable concentration. The culture was collected by centrifugation 24 h after incubation at 37 °C in 5% CO2 with a Stimulation Buffer. The cell suspension was then dispensed in a white 384-well plate at a volume of 7 μl per well before adding 7 μl of ligands. The mixture was incubated for 1 h at 37 °C. IP-One-d2 and anti-IP-One Cryptate dissolved in Lysis Buffer (3 μl each) were subsequently added and incubated for 15-30 min at room temperature before measurement. Intracellular IP-One measurement was carried out with the IP-One HTRF kit and EnVision multi-plate reader (PerkinElmer) according to the manufacturer’s instructions. Data were normalized to the baseline response of the ligand. pEC50 Emin, and Emax for each curve were calculated by GraphPad Prism 8.0. ∆pEC50 equals pEC50 of agonists to specific Mutant minus pEC50 of agonists to WT. Data are presented as mean values ± SEM; n = 3 independent samples; n.s. no significant; *p < 0.05; **p < 0.01; ***p < 0.001.

FP T184A = biological target: T2, FP T184A (Homo sapiens, UniProt P43088, T184A); experiment: IP-One accumulation assay, FP T184A mutant; conditions: T184 mutant (alanine) vs WT FP
T2 construct: Flag; expressed in transfected cells; host or cells: AD293 cells
T2 sequence (P43088 whole entry T184A): as the sequence (P43088 whole entry S33A) above, with A33S, T184A counted along it
Method: as §1

FP R133A = biological target: T3, FP R133A (Homo sapiens, UniProt P43088, R133A); experiment: IP-One accumulation assay, FP R133A mutant; conditions: for IP1 accumulation response to PGF2α (dose-response source data): FP R133A, replicate values
T3 construct: expressed in transfected cells; host or cells: AD293 cells
T3 sequence (P43088 whole entry R133A): as the sequence (P43088 whole entry S33A) above, with A33S, R133A counted along it
Method: as §1

FP L213A = biological target: T4, FP L213A (Homo sapiens, UniProt P43088, L213A); experiment: IP-One accumulation assay, FP L213A mutant; conditions: L213A mutant vs WT FP
T4 construct: Flag; expressed in transfected cells; host or cells: AD293 cells
T4 sequence (P43088 whole entry L213A): as the sequence (P43088 whole entry S33A) above, with A33S, L213A counted along it
Method: as §1

FP W262A = biological target: T5, FP W262A (Homo sapiens, UniProt P43088, W262A); experiment: IP-One accumulation assay, FP W262A mutant; conditions: W262 to alanine vs WT FP
T5 construct: Flag; expressed in transfected cells; host or cells: AD293 cells
T5 sequence (P43088 whole entry W262A): as the sequence (P43088 whole entry S33A) above, with A33S, W262A counted along it
Method: as §1

FP R308A = biological target: T6, FP R308A (Homo sapiens, UniProt P43088, R308A); experiment: IP-One accumulation assay, FP R308A mutant; conditions: R308A mutant vs WT FP
T6 construct: expressed in transfected cells; host or cells: AD293 cells
T6 sequence (P43088 whole entry R308A): as the sequence (P43088 whole entry S33A) above, with A33S, R308A counted along it
Method: as §1

FP T294A = biological target: T7, FP T294A (Homo sapiens, UniProt P43088, T294A); experiment: IP-One accumulation assay, FP T294A mutant
T7 construct: Flag; expressed in transfected cells; host or cells: AD293 cells
T7 sequence (P43088 whole entry T294A): as the sequence (P43088 whole entry S33A) above, with A33S, T294A counted along it
Method: as §1

human FP (WT) = biological target: T8, human FP (WT) (Homo sapiens, UniProt P43088); experiment: IP-One (IP1) accumulation assay, wild-type FP
T8 construct: Flag; expressed in transfected cells; host or cells: AD293 cells
T8 sequence (P43088 whole entry): as the sequence (P43088 whole entry S33A) above, with A33S counted along it
Method: as §1

FP H81A = biological target: T9, FP H81A (Homo sapiens, UniProt P43088, H81A); experiment: IP-One accumulation assay, FP H81A mutant; conditions: H81 mutated to alanine vs WT FP
T9 construct: Flag; expressed in transfected cells; host or cells: AD293 cells
T9 sequence (P43088 whole entry H81A): as the sequence (P43088 whole entry S33A) above, with A33S, H81A counted along it
Method: as §1

FP Q297A = biological target: T10, FP Q297A (Homo sapiens, UniProt P43088, Q297A); experiment: IP-One accumulation assay, FP Q297A mutant; conditions: Q297A mutant vs WT FP; IP1 accumulation, AD293 cells; single values of n = 3 independent samples
T10 construct: Flag; expressed in transfected cells; host or cells: AD293 cells
T10 sequence (P43088 whole entry Q297A): as the sequence (P43088 whole entry S33A) above, with A33S, Q297A counted along it
Method: as §1

FP S118A = biological target: T11, FP S118A (Homo sapiens, UniProt P43088, S118A); experiment: IP-One accumulation assay, FP S118A mutant; conditions: S118A mutant vs WT FP; IP1 accumulation, AD293 cells; single values of n = 3 independent samples
T11 construct: Flag; expressed in transfected cells; host or cells: AD293 cells
T11 sequence (P43088 whole entry S118A): as the sequence (P43088 whole entry S33A) above, with A33S, S118A counted along it
Method: as §1

FP R291A = biological target: T12, FP R291A (Homo sapiens, UniProt P43088, R291A); experiment: IP-One accumulation assay, FP R291A mutant
T12 construct: Flag; expressed in transfected cells; host or cells: AD293 cells
T12 sequence (P43088 whole entry R291A): as the sequence (P43088 whole entry S33A) above, with A33S, R291A counted along it
Method: as §1

FP mutant of E132 = biological target: T13, FP mutant of E132 (Homo sapiens, UniProt P43088, E132A); experiment: IP-One accumulation assay, FP E132 mutant; conditions: E132 mutant vs WT FP
T13 construct: Flag; expressed in transfected cells; host or cells: AD293 cells
T13 sequence (P43088 whole entry E132A): as the sequence (P43088 whole entry S33A) above, with A33S, E132A counted along it
Method: as §1

FP Q250A = biological target: T14, FP Q250A (Homo sapiens, UniProt P43088, Q250A); experiment: IP-One accumulation assay, FP Q250A mutant; conditions: Q250A mutant vs WT FP
T14 construct: expressed in transfected cells; host or cells: AD293 cells
T14 sequence (P43088 whole entry Q250A): as the sequence (P43088 whole entry S33A) above, with A33S, Q250A counted along it
Method: as §1

FP M115A = biological target: T15, FP M115A (Homo sapiens, UniProt P43088, M115A); experiment: IP-One accumulation assay, FP M115A mutant
T15 construct: Flag; expressed in transfected cells; host or cells: AD293 cells
T15 sequence (P43088 whole entry M115A): as the sequence (P43088 whole entry S33A) above, with A33S, M115A counted along it
Method: as §1

FP F265A = biological target: T16, FP F265A (Homo sapiens, UniProt P43088, F265A); experiment: IP-One accumulation assay, FP F265A mutant
T16 construct: Flag; expressed in transfected cells; host or cells: AD293 cells
T16 sequence (P43088 whole entry F265A): as the sequence (P43088 whole entry S33A) above, with A33S, F265A counted along it
Method: as §1

FP F205A = biological target: T17, FP F205A (Homo sapiens, UniProt P43088, F205A); experiment: IP-One accumulation assay, FP F205A mutant; conditions: F205 to alanine vs WT FP
T17 construct: Flag; expressed in transfected cells; host or cells: AD293 cells
T17 sequence (P43088 whole entry F205A): as the sequence (P43088 whole entry S33A) above, with A33S, F205A counted along it
Method: as §1

FP I290A = biological target: T18, FP I290A (Homo sapiens, UniProt P43088); experiment: IP-One accumulation assay, FP I290A mutant; conditions: L290 to alanine vs WT FP
T18 construct: Flag; expressed in transfected cells; host or cells: AD293 cells
T18 sequence (P43088 whole entry L290A): as the sequence (P43088 whole entry S33A) above, with A33S, L290A counted along it
Method: as §1

FP L123A = biological target: T19, FP L123A (Homo sapiens, UniProt P43088, L123A); experiment: IP-One accumulation assay, FP L123A mutant; conditions: L123A mutant vs WT FP
T19 construct: Flag; expressed in transfected cells; host or cells: AD293 cells
T19 sequence (P43088 whole entry L123A): as the sequence (P43088 whole entry S33A) above, with A33S, L123A counted along it
Method: as §1

FP mutant of C134 = biological target: T20, FP mutant of C134 (Homo sapiens, UniProt P43088, C134A); experiment: IP-One accumulation assay, FP C134 mutant; conditions: C134 mutant vs WT FP
T20 construct: expressed in transfected cells; host or cells: AD293 cells
T20 sequence (P43088 whole entry C134A): as the sequence (P43088 whole entry S33A) above, with A33S, C134A counted along it
Method: as §1

FP Y92A = biological target: T21, FP Y92A (Homo sapiens, UniProt P43088, Y92A); experiment: IP-One accumulation assay, FP Y92A mutant; conditions: Y92 mutant (alanine) vs WT FP
T21 construct: Flag; expressed in transfected cells; host or cells: AD293 cells
T21 sequence (P43088 whole entry Y92A): as the sequence (P43088 whole entry S33A) above, with A33S, Y92A counted along it
Method: as §1

CCCCC[C@H](O)/C=C/[C@@H]1[C@@H](C/C=C\CCCC(=O)O)[C@@H](O)C[C@H]1O [PGF2α, Prostaglandin F2α]
∆pEC50 (pEC50 of agonist to mutant minus pEC50 to WT) (FP S33A; S33A mutant vs WT FP, IP1 accumulation, AD293 cells, single values of n = 3 independent samples): -1.0 and -1.1 and -0.8
effect of mutation on agonist affinity / potency (in words) (FP S33A; S33 to alanine vs WT FP): significantly impaired the affinity
effect of mutation on agonist activity / potency (in words) (FP T184A): decreased activity
IP1 accumulation response to PGF2α (dose-response source data) (FP R133A; log[PGF2α] -5): 21.57 and 17.44 and 18.01
IP1 accumulation response to PGF2α (dose-response source data) (FP R133A; log[PGF2α] -6): 20.73 and 14.37 and 13.23
IP1 accumulation response to PGF2α (dose-response source data) (FP R133A; log[PGF2α] -7): 14.89 and 14.23 and 16.03
IP1 accumulation response to PGF2α (dose-response source data) (FP R133A; log[PGF2α] -8): 16.86 and 14.19 and 10.91
IP1 accumulation response to PGF2α (dose-response source data) (FP R133A; log[PGF2α] -9): 17.57 and 19.43 and 13.59
IP1 accumulation response to PGF2α (dose-response source data) (FP R133A; log[PGF2α] -10): 9.93 and 11.01 and 11.54
IP1 accumulation response to PGF2α (dose-response source data) (FP R133A; log[PGF2α] -11): 5.43 and 6.41 and 3.41
IP1 accumulation response to PGF2α (dose-response source data) (FP R133A; log[PGF2α] -14): 0.27 and 6.69 and 6.06
effect of mutation on agonist activity (in words) (FP R133A; R133 / R133A mutant vs WT FP): decreased PGF2α activity; also recorded: loss of PGF2α activity
effect of mutation on agonist potency (in words) (FP L213A): decreased potency
effect of mutation on agonist affinity / induced activation (in words) (FP W262A): significantly impaired the affinity
effect of mutation on agonist activity (in words) (FP R308A): loss of PGF2α activity
∆pEC50 (pEC50 of agonist to mutant minus pEC50 to WT) (FP T294A; T294A mutant vs WT FP, IP1 accumulation, AD293 cells, single values of n = 3 independent samples): -2.2 and -2.3 and -2.0
effect of mutation on agonist affinity / potency (in words) (FP T294A; T294 to alanine vs WT FP): significantly impaired the affinity
IP1 accumulation response to PGF2α (dose-response source data) (human FP (WT); log[PGF2α] -5, replicate values): 101.79 and 97.30 and 100.89
IP1 accumulation response to PGF2α (dose-response source data) (human FP (WT); log[PGF2α] -6, replicate values): 98.67 and 93.94 and 92.75
IP1 accumulation response to PGF2α (dose-response source data) (human FP (WT); log[PGF2α] -7, replicate values): 95.13 and 96.40 and 98.46
IP1 accumulation response to PGF2α (dose-response source data) (human FP (WT); log[PGF2α] -8, replicate values): 91.30 and 99.44 and 87.48
IP1 accumulation response to PGF2α (dose-response source data) (human FP (WT); log[PGF2α] -9, replicate values): 86.14 and 76.33 and 80.44
IP1 accumulation response to PGF2α (dose-response source data) (human FP (WT); log[PGF2α] -10, replicate values): 72.71 and 62.76 and 60.52
IP1 accumulation response to PGF2α (dose-response source data) (human FP (WT); log[PGF2α] -11, replicate values): 49.52 and 56.92 and 52.06
IP1 accumulation response to PGF2α (dose-response source data) (human FP (WT); log[PGF2α] -14, replicate values): 42.81 and 48.67 and 43.43
reduction of activity to FP by mutation (FP H81A): over 1000 folds
∆pEC50 (pEC50 of agonist to mutant minus pEC50 to WT) (FP Q297A): -1.9 and -1.8
∆pEC50 (pEC50 of agonist to mutant minus pEC50 to WT) (FP S118A): 0.3 and 0.0 and 0.2
∆pEC50 (pEC50 of agonist to mutant minus pEC50 to WT) (FP R291A; R291A mutant vs WT FP, IP1 accumulation, AD293 cells, single values of n = 3 independent samples): -2.6 and -2.4 and -2.5
effect of mutation on agonist activity / potency (in words) (FP R291A; R291 mutant (alanine) vs WT FP): decreased activity
effect of mutation on agonist activity (in words) (FP mutant of E132): decreased PGF2α activity
effect of mutation on agonist activity (in words) (FP Q250A): loss of PGF2α activity
∆pEC50 (pEC50 of agonist to mutant minus pEC50 to WT) (FP M115A; M115A mutant vs WT FP, IP1 accumulation, AD293 cells, single values of n = 3 independent samples): -2.0 and -2.1 and -1.9
decrease of affinity by mutation (FP M115A; M115 mutated to alanine vs WT FP): approximately 100 fold
∆pEC50 (pEC50 of agonist to mutant minus pEC50 to WT) (FP F265A; F265A mutant vs WT FP, IP1 accumulation, AD293 cells, single values of n = 3 independent samples): -2.8 and -2.7
effect of mutation on agonist affinity (in words) (FP F265A; F265 to alanine vs WT FP): significantly impaired the affinity
effect of mutation on agonist affinity (in words) (FP F205A): significantly impaired the affinity
effect of mutation on agonist affinity (in words) (FP I290A): significantly impaired the affinity
effect of mutation on agonist potency (in words) (FP L123A): decreased potency
effect of mutation on agonist activity (in words) (FP mutant of C134): decreased PGF2α activity
effect of mutation on agonist activity / potency (in words) (FP Y92A): decreased activity
